According to publication PMC12392461, “Beyond Estrogenicity: A Comparative Assessment of Bisphenol A and Its Alternatives in In Vitro Assays Questions Safety of Replacements” (Environmental Science & Technology, 2025):
Like-named read-outs stand apart in the source and are kept apart here.

Experiments:
[1] = molecular target: T1, Peroxisome proliferator-activated receptor γ (Homo sapiens, UniProt P37231); assay: cell-based; settings: PPARγ bioassay, dosing range all; for EC10, linear: linear model; for logEC10: log-logistic model
T1 sequence (P37231 238-505 limits assumed): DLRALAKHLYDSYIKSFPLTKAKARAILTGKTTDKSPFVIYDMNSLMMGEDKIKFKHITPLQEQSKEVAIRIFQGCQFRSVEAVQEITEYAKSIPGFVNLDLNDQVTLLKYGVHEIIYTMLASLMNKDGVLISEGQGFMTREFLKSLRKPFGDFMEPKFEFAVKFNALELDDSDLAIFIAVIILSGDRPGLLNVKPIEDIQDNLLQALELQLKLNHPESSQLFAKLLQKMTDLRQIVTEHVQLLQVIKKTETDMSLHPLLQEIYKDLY
How it was run: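 ERα-UAS-bla GripTite and PPARγ-UAS-bla reporter cells were seeded in assay medium with 2% charcoal-stripped FBS and held 24 h at 37 °C before dosing. Viability came from IncuCyte confluency before and after exposure. EC10 used only concentrations below IC10; Emax% is the log-logistic curve maximum relative to the reference chemical.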

[2] = system: H4IIe (AhR CALUX); settings: for IC10, linear: linear model fit; for IC10, H4IIe, AhR: H4IIe (AhR assay cells); for Toxic ratio (TR) TRAhR: against baseline cytotoxicity
How it was run: (§1)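 Cytotoxicity of BPA and its alternatives was measured as cell confluency on an IncuCyte S3 before and after 24 h exposure at 37 °C, 5% CO₂, normalized to cell-free control wells. Chemicals were dosed as 11-step serial dilutions in duplicate. Only concentrations below IC10 counted toward EC10 or ARE ECIR1.5.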

[3] = system: HEK293H (PPARγ); settings: for IC10, HEK293, PPARγ: cytotoxicity, HEK293 (PPARγ assay cells); for Toxic ratio (TR) TRPPARγ: against baseline cytotoxicity
How it was run: as §1

[4] = system: HEK293T (ERα); settings: for IC10, HEK293, ERα: HEK293 (ERα assay cells); for Toxic ratio (TR) TRERα: against baseline cytotoxicity
How it was run: as §1

[5] = system: MCF7 (ARE/MMP); settings: for IC10, MCF7, ARE: MCF7, ARE readout; for Toxic ratio (TR) TRARE: ARE readout
How it was run: as §1

[6] = Bioassay AhR, cytotoxicity, dosing range all
[7] = Bioassay AhR, cytotoxicity, dosing range all, log-logistic model fit
[8] = PPARγ bioassay cytotoxicity, dosing range all
[9] = PPARγ bioassay cytotoxicity, dosing range all, linear model
[10] = PPARγ bioassay cytotoxicity, dosing range all, log-logistic model
[11] = Bioassay ARE, cytotoxicity, dosing range all
[12] = Bioassay ARE, cytotoxicity, dosing range all, linear model fit
[13] = Bioassay ARE, cytotoxicity, dosing range all, log-logistic model fit
[14] = MMP bioassay cytotoxicity, dosing range all
[15] = MMP bioassay cytotoxicity, dosing range all, linear model
[16] = MMP bioassay cytotoxicity, dosing range all, log-logistic model

Question: Which “EC10, linear” value [1] does the source give for `CC(c1ccc(O)cc1)c1ccc(O)cc1` [BPE, 4,4′-Ethylidenbisphenol] here?
Answer: The value was “no effect”.

Question: And the logEC10 [1]?
Answer: The logEC10 was “no effect”.

Question: And the “IC10, linear transformed” value [2, 6]?
Answer: Its value is 1.06E-04.

Question: What about the “IC10, linear” value [2, 6] of the same compound?
Answer: The value was 8.43E-05.

Question: What about the logIC10 [2, 7] of the same compound?
Answer: The logIC10 was -3.97.

Question: What about the “IC10, H4IIe, AhR” value ([2]; cytotoxicity) of the same compound?
Answer: Its value is 84.3 µM.

Question: And the “IC10, linear transformed” value [3, 8]?
Answer: Its value is 5.10E-06.

Question: What about the “IC10, linear” value [3, 9] of the same compound?
Answer: The value was 6.46E-05.

Question: And the logIC10 [3, 10]?
Answer: Its logIC10 is -4.15.

Question: And the “IC10, HEK293, PPARγ” value [3]?
Answer: The value was 70.8 µM.

Question: And the “IC10, linear transformed” value ([4]; Bioassay ERα, cytotoxicity, dosing range all)?
Answer: Its value is 3.62E-05.

Question: And the “IC10, linear” value ([4]; Bioassay ERα, cytotoxicity, dosing range all, linear model fit)?
Answer: The value was 6.74E-05.

Question: And the logIC10 ([4]; Bioassay ERα, cytotoxicity, dosing range all, log-logistic model fit)?
Answer: Its logIC10 is -4.23.

Question: What about the “IC10, HEK293, ERα” value ([4]; cytotoxicity) of the same compound?
Answer: The value was 67.4 µM.

Question: And the “IC10, linear transformed” value [5, 11]?
Answer: The value was 7.96E-05.

Question: What about the “IC10, linear” value [5, 12] of the same compound?
Answer: Its value is 1.10E-04.

Question: And the logIC10 [5, 13]?
Answer: Its logIC10 is -4.10.

Question: And the “IC10, linear transformed” value [5, 14]?
Answer: The value was 7.86E-05.

Question: And the “IC10, linear” value [5, 15]?
Answer: Its value is 8.57E-05.

Question: What about the logIC10 [5, 16] of the same compound?
Answer: Its logIC10 is -4.10.

Question: And the “IC10, MCF7, ARE” value ([5]; cytotoxicity)?
Answer: Its value is 79.6 µM.

Question: What about the “IC10, MCF7, MMP” value ([5]; cytotoxicity, MCF7, MMP readout) of the same compound?
Answer: Its value is 78.6 µM.

Question: `COC(=O)C(c1ccc(O)cc1)c1ccc(O)cc1` [Bz, Methyl bis(4-hydroxyphenyl)acetate] was tested. Which “EC10, linear” value [1] did it give?
Answer: The value was “no effect”.

Question: What about the logEC10 [1] of the same compound?
Answer: Its logEC10 is “no effect”.

Question: And the “IC10, linear transformed” value [2, 6]?
Answer: Its value is 1.41E-04.

Question: And the “IC10, linear” value [2, 6]?
Answer: The value was 1.09E-04.

Question: What about the logIC10 [2, 7] of the same compound?
Answer: The logIC10 was -3.85.

Question: What about the “Toxic ratio (TR) TRAhR” value [2] of the same compound?
Answer: The value was 3.18.

Question: And the “IC10, H4IIe, AhR” value ([2]; cytotoxicity)?
Answer: Its value is 109 µM.

Question: And the “IC10, linear transformed” value [3, 8]?
Answer: The value was 1.09E-04.

Question: What about the “IC10, linear” value [3, 9] of the same compound?
Answer: The value was 3.71E-04.

Question: What about the logIC10 [3, 10] of the same compound?
Answer: Its logIC10 is -3.55.

Question: And the “Toxic ratio (TR) TRPPARγ” value [3]?
Answer: The value was 0.92.

Question: And the “IC10, HEK293, PPARγ” value [3]?
Answer: Its value is 282 µM.

Question: And the “IC10, linear transformed” value ([4]; Bioassay ERα, cytotoxicity, dosing range high)?
Answer: Its value is 1.18E-04.

Question: And the “IC10, linear” value ([4]; Bioassay ERα, cytotoxicity, dosing range high, linear model fit)?
Answer: Its value is 1.01E-03.

Question: And the logIC10 ([4]; Bioassay ERα, cytotoxicity, dosing range high, log-logistic model fit)?
Answer: The logIC10 was -3.63.

Question: And the “IC10, linear” value ([4]; Bioassay ERα, cytotoxicity, dosing range low, linear model fit)?
Answer: Its value is “no cytotoxicity”.

Question: And the logIC10 ([4]; Bioassay ERα, cytotoxicity, dosing range low, log-logistic model fit)?
Answer: Its logIC10 is “no cytotoxicity”.

Question: And the “Toxic ratio (TR) TRERα” value [4]?
Answer: The value was 0.26.

Question: And the “IC10, HEK293, ERα” value ([4]; cytotoxicity)?
Answer: The value was 1010 µM.

Question: And the “IC10, linear transformed” value [5, 11]?
Answer: Its value is 4.96E-04.

Question: What about the “IC10, linear” value [5, 12] of the same compound?
Answer: Its value is 3.89E-04.

Question: What about the logIC10 [5, 13] of the same compound?
Answer: Its logIC10 is -3.30.

Question: And the “IC10, linear transformed” value [5, 14]?
Answer: The value was 3.45E-04.

Question: What about the “IC10, linear” value [5, 15] of the same compound?
Answer: The value was 3.44E-04.

Question: What about the logIC10 [5, 16] of the same compound?
Answer: Its logIC10 is -3.46.

Question: And the “Toxic ratio (TR) TRARE” value ([5]; against baseline cytotoxicity)?
Answer: Its value is 0.70.

Question: And the “IC10, MCF7, ARE” value ([5]; cytotoxicity)?
Answer: The value was 496 µM.

Question: For `CC(C)Oc1ccc(S(=O)(=O)c2ccc(O)cc2)cc1` [D8, 4-((4-Isopropoxyphenyl)sulfonyl)phenol], which “EC10, linear” value [1] is on record?
Answer: The value was 5.40E-06.

Question: And the logEC10 [1]?
Answer: Its logEC10 is “no effect”.

Question: And the “Toxic ratio (TR) TRAhR” value [2]?
Answer: Its value is 2.94.

Question: What about the logIC10 ([2]; rat, 24 h) of the same compound?
Answer: The logIC10 was -4.56.

Question: What about the “IC10, linear” value [3] of the same compound?
Answer: The value was “no cytotoxicity”.

Question: And the “Toxic ratio (TR) TRPPARγ” value [3]?
Answer: Its value is 0.93.

Question: What about the logIC10 ([3]; human, 24 h) of the same compound?
Answer: The logIC10 was -4.15.

Question: And the “IC10, linear” value [4]?
Answer: Its value is “no cytotoxicity”.

Question: And the “Toxic ratio (TR) TRERα” value [4]?
Answer: Its value is 0.36.

Question: And the logIC10 ([4]; human, 24 h)?
Answer: Its logIC10 is -3.73.

Question: And the “Toxic ratio (TR) TRARE” value ([5]; against baseline cytotoxicity)?
Answer: The value was 0.06.

Question: And the “Toxic ratio (TR) TRMMP” value ([5]; against baseline cytotoxicity, MMP readout)?
Answer: The value was 0.06.

Question: And the logIC10 ([5]; human, 24 h)?
Answer: Its logIC10 is -2.67.
